For nine compounds, TGI and GI50 results are on record in PubChem BioAssay (NCI).

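Each compound was tested at five concentrations against cells in 96-well plates for 48 hours. GI50: concentration for 50% inhibition of growth. TGI: total growth inhibition.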

Test systems include HCC-2998 colon; OVCAR-4 ovarian; XF 498 CNS; DLD-1 colon; OVCAR-8 ovarian; NCI-H23 lung; UACC-257 melanoma; KM20L2 colon; DMS 273 small cell lung; SW-620 colon; A549 NSCLC; DU-145 prostate.
What all share (experiment): NCI tumour cell line growth inhibition, 48 h

Take `CC1(C2CCC3(C)OC3C2)CO1` (stereo unspecified): the TGI in the experiment with HCC-2998 colon, with OVCAR-4 ovarian, in the experiment on XF 498 CNS, in the experiment on DLD-1 colon, in the experiment on OVCAR-8 ovarian and in the experiment with NCI-H23 lung was over 100 µM in each case. The TGI with UACC-257 melanoma, with KM20L2 colon, in the experiment with DMS 273 small cell lung, with SW-620 colon and in the experiment with A549 NSCLC was over 100 µM each time.

As to `O=C1C=CC(=O)c2c(O)c(N3CCN(CCOCCO)CC3)c(Cl)c(O)c21`, the GI50 in the experiment on HCC-2998 colon is 2.27 µM; in the experiment on A549 NSCLC, 2.39 µM. The TGI was 1.88 µM in the experiment on XF 498 CNS; 0.401 µM in the experiment on DLD-1 colon; 2.07 µM in the experiment with KM20L2 colon; 2.25 µM with DMS 273 small cell lung; 3.31 µM [middle of 4 runs] in the experiment on DU-145 prostate; 7.87 µM [middle of 4 runs] in the experiment on A549 NSCLC.

Turning to `CC(=O)O[C@H]1CC[C@@]2(C)[C@H](CC[C@@H]3[C@@H]2CC[C@]2(C)[C@@H](c4ccc(=O)oc4)C[C@H]4O[C@]342)C1`, the TGI with HCC-2998 colon stood at 8.88 µM; with OVCAR-4 ovarian it was 3.86 µM; in the experiment on XF 498 CNS, 3.27 µM; in the experiment on DLD-1 colon it was 7.34 µM; in the experiment on OVCAR-8 ovarian, 4.1 µM; in the experiment with NCI-H23 lung, 1.83 µM. Besides, the TGI with UACC-257 melanoma was found to be 6.89 µM; in the experiment on KM20L2 colon, 12.5 µM; with DMS 273 small cell lung it was 1.47 µM; with SW-620 colon it was 3.1 µM; in the experiment with A549 NSCLC, 0.759 µM.

On to `CC(=O)CC(=O)CCC(=O)O`, for which the TGI in the experiment on HCC-2998 colon, in the experiment with XF 498 CNS, with DLD-1 colon, in the experiment with OVCAR-8 ovarian, in the experiment on NCI-H23 lung and in the experiment on UACC-257 melanoma was over 100 µM each time. The TGI in the experiment with KM20L2 colon, with DMS 273 small cell lung, with SW-620 colon and in the experiment on A549 NSCLC was over 100 µM each time.

As for `O=C1C=CC(=O)c2c(Cl)ccc(O)c21`, the TGI in the experiment with HCC-2998 colon was over 100 µM; in the experiment on OVCAR-4 ovarian it was 32.5 µM; in the experiment with XF 498 CNS it was 32.7 µM; in the experiment on DLD-1 colon it was 27.6 µM; in the experiment on OVCAR-8 ovarian, 50.2 µM; in the experiment on NCI-H23 lung, 17.1 µM. The TGI in the experiment with UACC-257 melanoma is 29.8 µM; in the experiment on KM20L2 colon it was 18.5 µM; with DMS 273 small cell lung, 25.4 µM; in the experiment on SW-620 colon, 31.4 µM; in the experiment with A549 NSCLC it was over 100 µM.

Consider `Cc1csc(NC(=NCCN2CCOCC2)Nc2nc(C)cs2)n1`, for which the TGI in the experiment on HCC-2998 colon, in the experiment with OVCAR-4 ovarian, in the experiment on XF 498 CNS, in the experiment on DLD-1 colon, with OVCAR-8 ovarian and in the experiment with NCI-H23 lung was over 100 µM in each case. Besides, the TGI with UACC-257 melanoma, in the experiment on KM20L2 colon, in the experiment with DMS 273 small cell lung, with SW-620 colon and in the experiment with A549 NSCLC was over 100 µM in each case.

In the case of `NCCOCC(N)C(=O)O` (stereo unspecified), the TGI in the experiment with HCC-2998 colon, with OVCAR-4 ovarian, in the experiment on OVCAR-8 ovarian, in the experiment on NCI-H23 lung, with UACC-257 melanoma and in the experiment on DU-145 prostate was over 100 µM throughout. Besides, the TGI in the experiment with SW-620 colon and in the experiment with A549 NSCLC was over 100 µM throughout.

In the case of `Cc1cc2c(c(=O)n1C)SCC2`, the TGI in the experiment on HCC-2998 colon, with OVCAR-4 ovarian, in the experiment on OVCAR-8 ovarian, in the experiment with NCI-H23 lung, in the experiment with UACC-257 melanoma and with DU-145 prostate was over 100 µM throughout. For the same compound, the TGI in the experiment with SW-620 colon and in the experiment with A549 NSCLC was over 100 µM in each case.

With `CC(C)(C)C1CC[C@H](O)[C@H]([C@H](O)CC2CC(=O)N(c3ccccc3)C(=O)C2)C1` (stereo partly specified), the TGI with HCC-2998 colon, in the experiment with OVCAR-4 ovarian, in the experiment with OVCAR-8 ovarian, in the experiment on NCI-H23 lung, in the experiment on UACC-257 melanoma and in the experiment with DU-145 prostate was over 100 µM in each case. Further, the TGI in the experiment with SW-620 colon and with A549 NSCLC was over 100 µM throughout.
